Data from US11266632B1, “Maslinic and oleanolic acids derivatives for treating SARS-CoV-2 infection” (priority 2021, dated 2022).
Where two headings read alike, the source gives them in different places.

Tests used:
[1] = system: SARS-CoV-2 "NRC-03-nhCoV" virus; test: Inhibitory concentration 50 (IC50) determination, virus-induced cytopathic effect in Vero-E6 cells, crystal violet; format: cell-based; details: for Selectivity Index (CC50/IC50): CC50 Vero E6 / IC50 NRC-03-nhCoV
[2] = system: MERS-CoV virus "NRCE-HKU270"; format: cell-based; details: Vero E6 cells
[3] = system: NRC-03-nhCoV; test: Mode of antiviral action, plaque infectivity reduction assay in Vero-E6 cells; format: cell-based, SARS-CoV-2
Protocol: To investigate whether the tested compound with high selectivity index and antiviral activity against NRC-03-nhCoV affect (a) viral adsorption, (b) viral replication or (c) viricidal effect, a plaque infectivity reduction assay was performed according to the following protocols:
The viral adsorption mechanism was assayed according to a protocol by Zhang et al. with modifications. Vero-E6 cells were cultivated in a 6-well plate (10^5 cells/mL) for 24 h at 37° C. Each tested drug was applied in 500 μL of medium without supplements and co-incubated with the cells for 2 h at 4° C. The non-absorbed drug in the applied inocula was removed by washing cells three times with 1×PBS. The NRC-03-nhCoV was diluted to a countable range “10-4” and co-incubated with the pretreated cells. About 1 h post-incubation, the inocula were removed and 3 mL of agarose overlay (1:1 mixture of warmed 2× plaque media and a stock solution of heated 2% agarose) were added. The plates were kept at room temperature to solidify and then incubated at 37° C. to allow the formation of viral plaques. […]
The impact of the tested drug on viral replication was determined as previously described. […] The analyzed compound was then applied in varying concentrations to infected cells for another 1 h contact time at 37° C. […]
The virucidal mechanism was analyzed. […]

[4] = Severe acute respiratory syndrome coronavirus 2, Vero C1008, 72 h
[5] = Severe acute respiratory syndrome coronavirus 2, Vero C1008, 72 h, NRC-03-nhCoV in Vero E6, 72 h, reduction of CPE by 50%, read-out: IC50

| SMILES | Selectivity Index (CC50/IC50) [1] | IC50 [1, 5] | other results |
| --- | --- | --- | --- |
| CC1(C)CC[C@]2(C(=O)O)CC[C@]3(C)C(=CC[C@@H]4[C@@]5(C)CC[C@H](O)C(C)(C)[C@@H]5CC[C@]43C)[C@@H]2C1 [Compound 1, Oleanic acid] | 0.39 |  | IC50 [1, 4]: 476 µM |
| CC1(C)CC[C@]2(C(=O)O)CC[C@]3(C)C(=CC[C@@H]4[C@@]5(C)C[C@@H](O)[C@H](O)C(C)(C)[C@@H]5CC[C@]43C)[C@@H]2C1 [Compound 2, Maslinic acid] | 0.97 |  | IC50 [1, 4]: 99.9 µM |
| C#CCOC(=O)[C@]12CCC(C)(C)CC1C1=CCC3[C@@]4(C)CC[C@H](O)C(C)(C)C4CC[C@@]3(C)[C@]1(C)CC2 (stereo partly drawn) [Compound 3, Propargyl-(3β)-3-hydroxyolean-12-en-28-oate] | 2.32 |  |  |
| C#CCOC(=O)[C@]12CCC(C)(C)CC1C1=CCC3[C@@]4(C)C[C@@H](O)[C@H](O)C(C)(C)C4CC[C@@]3(C)[C@]1(C)CC2 (stereo partly drawn) [Compound 4, Propargyl-(2α,3β)-2,3-dihydroxyolean-12-en-28-oate] | 0.67 |  | IC50 [1, 4]: 236 µM |
| C#CCOC(=O)[C@]12CCC(C)(C)CC1C1=CCC3[C@@]4(C)C[C@@H](OCC#C)[C@H](O)C(C)(C)C4CC[C@@]3(C)[C@]1(C)CC2 (stereo partly drawn) [Compound 5, Propargyl-(2α)-2-(propargyloxy)-(3β)-3-hydroxy-olean-12-en-28-oate] | 1.06 | 85.2 µM |  |
| C#CCOC(=O)[C@]12CCC(C)(C)CC1C1=CCC3[C@@]4(C)C[C@@H](O)[C@H](OCC#C)C(C)(C)C4CC[C@@]3(C)[C@]1(C)CC2 (stereo partly drawn) [Compound 6, Propargyl-(3α)-3-(propargyloxy)-(2β)-2-hydroxy-olean-12-en-28-oate] | 1.55 | 135 µM |  |
| C#CCOC(=O)[C@]12CCC(C)(C)CC1C1=CCC3[C@@]4(C)C[C@@H](OCC#C)[C@H](OCC#C)C(C)(C)C4CC[C@@]3(C)[C@]1(C)CC2 (stereo partly drawn) [Compound 7, Propargyl-(2α,3β)-2,3-bis(propargyloxy)-olean-12-en-28-oate] | 0.9 | 108 µM |  |
| Cc1cccc(-n2nncc2COC(=O)[C@]23CCC(C)(C)CC2C2=CCC4[C@@]5(C)CC[C@H](O)C(C)(C)C5CC[C@@]4(C)[C@]2(C)CC3)c1 (stereo partly drawn) [Compound 8, (1-(3-mcthylphenyl)-1H-1,2,3-triazol-5-yl)methyl-(3β)-3-hydroxyolean-12-en-28-oate] | 0.98 | 174 µM |  |
| Cc1cccc(-n2cc(COC(=O)[C@]34CCC(C)(C)CC3C3=CCC5[C@@]6(C)CC[C@H](O)C(C)(C)C6CC[C@@]5(C)[C@]3(C)CC4)nn2)c1 (stereo partly drawn) [Compound 10, (1-(3-methylphenyl)-1H-1,2,3-triazol-4-yl)methyl-(3β)-3-hydroxyolean-12-en-28-oate] | 3.68 |  |  |
| CC1(C)CC[C@]2(C(=O)OCc3cn(-c4ccccc4)nn3)CC[C@]3(C)C(=CCC4[C@@]5(C)C[C@@H](O)[C@H](O)C(C)(C)C5CC[C@]43C)C2C1 (stereo partly drawn) [Compound 11, (1-Phenyl-1H-1,2,3-triazol-4-yl)methyl-(2α,3β)-2,3-dihydroxyolean-12-en-28-oate] | 1.62 | 135 µM |  |
| CC1(C)CC[C@]2(C(=O)OCc3cn(-c4ccc(Cl)cc4)nn3)CC[C@]3(C)C(=CCC4[C@@]5(C)C[C@@H](OCc6cn(-c7ccc(Cl)cc7)nn6)[C@H](O)C(C)(C)C5CC[C@]43C)C2C1 (stereo partly drawn) [Compound 12, (1-(4-Chlorophenyl)-1H-1,2,3-triazol-4-yl)methyl-(2α,3β)-2-((1-(4-chlorophenyl)-1H-1,2,3-triazol-4-yl)methoxy)-3-hydroxyolean-12-en-28-oate] | 4.42 | 116 µM |  |
| COc1ccc(-n2cc(COC(=O)[C@]34CCC(C)(C)CC3C3=CCC5[C@@]6(C)C[C@@H](O)[C@H](OCc7cn(-c8ccc(OC)cc8)nn7)C(C)(C)C6CC[C@@]5(C)[C@]3(C)CC4)nn2)cc1 (stereo partly drawn) [Compound 13, (1-(4-Methoxyphenyl)-1H-1,2,3-triazol-4-yl)methyl-(2α,3β)-2-hydroxy-3-((1-(4-methoxyphenyl)-1H-1,2,3-triazol-4-yl)methoxy)-olean-12-en-28-oate] | 2.24 | 159 µM |  |
| COc1ccc(-n2cc(COC(=O)[C@]34CCC(C)(C)CC3C3=CCC5[C@@]6(C)C[C@@H](OCc7cn(-c8ccc(OC)cc8)nn7)[C@H](OCc7cn(-c8ccc(OC)cc8)nn7)C(C)(C)C6CC[C@@]5(C)[C@]3(C)CC4)nn2)cc1 (stereo partly drawn) [Compound 14, (1-(4-Methoxyphenyl)-1H-1,2,3-triazol-4-yl)methyl-(2α,3β)-2,3-bis((1-(4-methoxyphenyl)-1H-l,2,3-triazol-4-yl)methoxy)-olean-12-en-28-oate] | 2.96 | 137 µM |  |
| COc1ccc(-c2cc(COC(=O)[C@]34CCC(C)(C)CC3C3=CCC5[C@@]6(C)CC[C@H](O)C(C)(C)C6CC[C@@]5(C)[C@]3(C)CC4)on2)cc1 (stereo partly drawn) [Compound 15, (3-(4-methoxyphenyl)isoxazol-5-yl) methyl-(3β)-3-hydroxyolean-12-en-28-oate] | 0.79 |  |  |
| COc1ccc(-c2cc(COC(=O)[C@]34CCC(C)(C)CC3C3=CCC5[C@@]6(C)C[C@@H](O)[C@H](O)C(C)(C)C6CC[C@@]5(C)[C@]3(C)CC4)on2)cc1 (stereo partly drawn) [Compound 16, (3-(4-methoxyphenyl)isoxazol-5-yl) methyl-(2α,3β)-2,3-dihydroxyolean-12-en-28-oate] | 1.48 |  |  |
| CC1(C)CC[C@]2(C(=O)OCc3cc(-c4ccc(Cl)cc4)no3)CC[C@]3(C)C(=CCC4[C@@]5(C)C[C@@H](O)[C@H](O)C(C)(C)C5CC[C@]43C)C2C1 (stereo partly drawn) [Compound 17, (3-(4-chlorophenyl)isoxazol-5-yl) methyl-(2α,3β)-2,3-dihydroxyolean-12-en-28-oate] |  | 4.12 µM | IC50 ([1]; NRC-03-nhCoV in Vero E6, 72 h, reduction of CPE by 50%, read-out: IC50): 4.12 to 99.9 µM; antiviral activity against NRCE-HKU270 [2]: promising antiviral activity against NRCE-HKU270 at micromolar concentrations; interference with viral adsorption and replication [3]: efficiently impair viral replication and adsorption; virucidal effect [3]: virucidal effect |
